We go through 80 compounds from the METLIN SMRT retention time set (Domingo-Almenara et al. 2019).

Molecules are shown by their SMILES.

This data set is described as follows: gradient 5% acetonitrile 3 min, to 50% in 2 min, to 85% in 15 min, held 3 min, 100 µL/min. The settings on record: column: Zorbax Extend-C18 2.1 x 50 mm; eluents: water / acetonitrile, 0.1% formic acid. Summed up: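 The system's dead and dwell volumes were 40 μL and 900 μL, with a Zorbax Extend-C18 column (2.1 × 50 mm, 1.8 μm) run at 100 μL/min in water and acetonitrile containing 0.1% formic acid each. Pure standards were analyzed in mixtures of ~100 molecules by HPLC–quadrupole time-of-flight mass spectrometry in positive and negative ionization mode. Retention time was assigned from computationally picked, manually inspected adduct peaks.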
With `Cc1nnc(-c2cn(CC(=O)NC3CCCCCCC3)c3ccccc23)o1`, the RP-LC retention time worked out at 903 s.

As for `Cc1ccc(-n2nc(N3CCN(C(=O)CC(C)C)CC3)ccc2=O)cc1C`, the RP-LC retention time was 831 s.

In turn, `c1cncc(-c2nc(CC3CCCNC3)no2)c1` (stereo not given) showed an RP-LC retention time of 564 s.

`COc1ccc(CNC(=O)CN2C(=O)NC3(CCC(C(C)(C)C)CC3)C2=O)cc1OC` (stereo not given) registered an RP-LC retention time of 863 s.

On to `CCN1C(=O)COc2ccc(-c3noc(C4(c5ccc(OC)cc5)CC4)n3)cc21`, for which the RP-LC retention time is 1140 s.

Regarding `Cc1ccccc1Oc1nccnc1N1CCC(C(=O)NC(C)CCc2ccccc2)CC1` (stereo not given), the RP-LC retention time is 1120 s.

The compound `c1ccc(-c2nnc(-c3ccccn3)s2)nc1` returned an RP-LC retention time of 850 s.

Compound `O=C(O)CCCC(=O)Nc1nc(-c2ccccc2)c(-c2ccccc2)s1` showed an RP-LC retention time of 893 s.

Regarding `O=C(NCCN1CCCCC1)c1cn2cc(Cl)ccc2n1`, the RP-LC retention time came out at 579 s.

Regarding `CCc1ccc(N2CC(c3noc(-c4ccc(OC)cc4OC)n3)CC2=O)cc1` (stereo not given), the RP-LC retention time came out at 1040 s.

In the case of `COc1cc(OC)c(NC(=O)NCCCn2c(C(F)(F)F)nc3cccnc32)cc1Cl`, the RP-LC retention time came to 836 s.

`CCC(C)NC(=O)N1CCNC(=O)C1` (stereo not given) displayed an RP-LC retention time of 557 s.

In turn, `O=C(Cc1c(F)cccc1Cl)N1CCN(c2cc(-c3cccs3)[nH]n2)CC1` gave an RP-LC retention time of 840 s.

`CC(=O)N1C[C@@H](C(=O)NCCc2cccs2)[C@H](c2nc(C)no2)C1` had an RP-LC retention time of 652 s.

`Cc1ccc(-n2c(=O)c3sccc3n(Cc3nc(-c4ccccc4)no3)c2=O)cc1`: the RP-LC retention time stood at 985 s.

In turn, `CC1CCN(S(=O)(=O)c2nn(C)cc2C(=O)NCc2ccc3c(c2)OCO3)CC1` gave an RP-LC retention time of 832 s.

Turning to `COc1ccc(NC(=O)C2CCN(S(=O)(=O)c3ccc4c(c3)CCCC(=O)N4)CC2)c(OC)c1`, the RP-LC retention time is 741 s.

Compound `COc1ccc(OC)c(NC(=O)NCC(c2cccnc2)c2cn(C)c3ccccc23)c1` (stereo not given) registered an RP-LC retention time of 713 s.

In turn, `CCC1(O)CCC12CCN(C(=O)c1cccs1)CC2` (stereo not given) showed an RP-LC retention time of 718 s.

For the compound `CCOc1cc(N)c(Cl)cc1C(=O)NCC1CN(Cc2ccc(F)cc2)CCO1` (stereo not given), the RP-LC retention time is 714 s.

Consider `CCC(Sc1nc(=O)cc(N)n1CCc1ccccc1)C(=O)Nc1nc(-c2ccccc2)cs1` (stereo not given), for which the RP-LC retention time came to 878 s.

The compound `Cc1cc(C)cc(NC(=O)N2CCN(c3cnn4c(C)nnc4c3)CC2)c1` showed an RP-LC retention time of 634 s.

In turn, `O=C(Cn1cccc(-c2nc(-c3ccccc3)no2)c1=O)Nc1ccccc1Br` had an RP-LC retention time of 898 s.

`O=C(NCC1CCCCC1)c1ccc2ncnc(N3CCCC3)c2c1` registered an RP-LC retention time of 675 s.

`CC(NC(=O)CCCN1C(=O)CCn2nc(-c3cn(C)c4ccccc34)cc21)c1ccccc1` (stereo not given) came in with an RP-LC retention time of 791 s.

`Cc1nc(Nc2nccc(-c3ccccc3)n2)nc2ccccc12` gave an RP-LC retention time of 677 s.

In turn, `Cc1ccsc1C(=O)Nc1ccc2c(c1)Sc1ncccc1C(=O)N2C(C)C` returned an RP-LC retention time of 886 s.

In the case of `O=C(Nc1ccc(C(=O)N2CCCCC2)c(N2CCCCCC2)c1)C1CC1`, the RP-LC retention time is 866 s.

For the compound `CCC(=O)N1CCN(Cc2nc3cc(NC(=O)C(C)C)ccc3n2C)CC1`, the RP-LC retention time was 584 s.

In turn, `CCN(CC)C(=O)C1CCCN(S(=O)(=O)c2ccc(OC)c(C)c2)C1` (stereo not given) returned an RP-LC retention time of 881 s.

The compound `CC(C)CCNC(=O)C1CCN(c2nccn3nc(-c4cccs4)cc23)CC1` displayed an RP-LC retention time of 1090 s.

`CCc1ccccc1NC(=O)Cn1c(N)nc(CC)c(C)c1=O`: the RP-LC retention time came out at 633 s.

With `CCOc1cccc(CNC(=O)c2cn3ccc(C)cc3n2)c1`, the RP-LC retention time was 671 s.

`CCn1cc(CCNC(=O)Nc2ccc(Br)cc2F)c2cccnc21` came in with an RP-LC retention time of 838 s.

`Cc1cccc(CNC(=O)C2(C)Cn3cnc(C(=O)NC4CC4)c3C(=O)N2C2CC2)c1` (stereo not given) came in with an RP-LC retention time of 706 s.

Take `CC1CN(C(=O)CCC(=O)NCCCN2CCC(N3CCCCC3)CC2)c2ccccc2O1` (stereo not given): the RP-LC retention time came out at 573 s.

As for `CCc1ccc(Oc2cc(N3CCC(C(=O)NC4CCCCCC4)CC3)ncn2)cc1`, the RP-LC retention time is 1110 s.

In the case of `Cn1ccc2ccn(CC(=O)Nc3cccc(Br)c3)c(=O)c21`, the RP-LC retention time was 827 s.

`CN(C)C(=O)c1csc(S(=O)(=O)N2CCC(C(=O)NC3CC3)CC2)c1` gave an RP-LC retention time of 626 s.

Regarding `Cc1noc(C2CN(S(=O)(=O)c3ccccc3)CC23CCOCC3)n1` (stereo not given), the RP-LC retention time came to 767 s.

Compound `O=C(Nc1ccc(OCc2nnc(-c3ccc(Cl)cc3)o2)cc1)c1cccnc1` returned an RP-LC retention time of 816 s.

`O=C(Cc1ccc(Cl)cc1)Nc1cc(-c2ccccn2)no1`: the RP-LC retention time is 850 s.

The compound `Cc1noc(C)c1CC(=O)N(C)C1CCc2nn(CC3CC3)c(=O)n2CC1` (stereo not given) returned an RP-LC retention time of 630 s.

In the case of `Cc1nnc2cc(N3CCN(S(=O)(=O)c4ccc(F)cc4)CC3)cnn12`, the RP-LC retention time was determined as 670 s.

Take `COc1ccc(-c2nnc(-c3ccccc3)o2)cc1S(=O)(=O)N1CCC(C)CC1`: the RP-LC retention time stood at 1090 s.

`CCC(=O)N1CCCN(C2=NS(=O)(=O)C(c3ccc(CC)cc3)=C2C)CC1` registered an RP-LC retention time of 796 s.

Compound `Cc1ccc(-c2noc(-c3nn(-c4ccc(C)cc4)ccc3=O)n2)cc1` came in with an RP-LC retention time of 1010 s.

On to `COc1ccc(N2CCN(CCNc3cc(C(=O)O)c4ccccc4n3)CC2)cc1`, for which the RP-LC retention time came to 919 s.

`CCc1ccc(NS(=O)(=O)c2cc3c(s2)CCN(C(=O)C2CC2)C3)cc1` had an RP-LC retention time of 864 s.

In the case of `COc1ccc(C(C)NC(=O)C2CCN(c3nccnc3Sc3ccc(C)cc3)CC2)cc1` (stereo not given), the RP-LC retention time was determined as 1060 s.

Consider `O=C(Nc1ccc(Cl)cc1)N1CCC(n2cnc3cc(F)ccc3c2=O)CC1`, for which the RP-LC retention time was determined as 848 s.

Regarding `O=C(CSc1nnc(-c2ccncc2)o1)N1CCCc2ccccc21`, the RP-LC retention time was found to be 788 s.

As for `CC(=O)Nc1ccc(SCCCC(=O)Nc2cccc(C)n2)nn1`, the RP-LC retention time was found to be 562 s.

Regarding `CC1CCc2c(N3CCC(O)CC3)c(F)cc3c(=O)c(C(=O)O)cn1c23` (stereo not given), the RP-LC retention time worked out at 709 s.

For `CCn1cnc(S(=O)(=O)N2CCC(C(=O)NCc3ccccc3Cl)CC2)c1`, the RP-LC retention time came out at 720 s.

As to `O=C(NCCCN1CCCC1)C1CCCN(c2ncc(-c3ccc(F)cc3)cn2)C1` (stereo not given), the RP-LC retention time turned out to be 674 s.

The compound `CCN(CC)S(=O)(=O)c1ccc2c(c1)N(CC(=O)NCCc1ccco1)C(=O)C1CCCCN21` (stereo not given) had an RP-LC retention time of 693 s.

As to `Fc1ccc(C2Cn3nnc(-c4nc(-c5cccnc5)no4)c3CO2)cc1` (stereo not given), the RP-LC retention time is 896 s.

In turn, `CC1Oc2ccc(S(=O)(=O)N3CCC(C(=O)NCc4ccc(Cl)cc4)CC3)cc2NC1=O` (stereo not given) had an RP-LC retention time of 846 s.

For the compound `CCN1C(=O)CCc2cc(NS(=O)(=O)c3cc(F)ccc3F)ccc21`, the RP-LC retention time came to 973 s.

Take `Cc1ccc(CNCc2ccc3c(c2)n(C)c(=O)n3C)cc1`: the RP-LC retention time was 619 s.

In turn, `Cc1nccn1Cc1nc(-c2ccc(F)cc2)no1` returned an RP-LC retention time of 614 s.

Regarding `CCn1nccc1-c1cccc(-c2noc(COc3ccc(Cl)cc3)n2)c1`, the RP-LC retention time came out at 1200 s.

`CC(C)(C)c1cc(N2CCN(c3ccccn3)CC2)n2ncc(-c3ccccc3)c2n1` registered an RP-LC retention time of 1040 s.

Take `COc1ccc(-c2nnc(COc3ccc(NC(=O)C4CCCC4)cc3)o2)cc1`: the RP-LC retention time worked out at 946 s.

For `CCOc1ccc(C(=O)N2CCN(S(=O)(=O)c3cc4c5c(c3)CCC(=O)N5CCC4)CC2)cc1`, the RP-LC retention time amounted to 815 s.

Take `O=C(NCCC1CCN(S(=O)(=O)c2ccccc2)CC1)Nc1ccc(F)cc1F`: the RP-LC retention time is 910 s.

`CCCCOC(=O)COc1cc(O)c2c(=O)cc(-c3ccccc3)oc2c1` displayed an RP-LC retention time of 1230 s.

For the compound `CC(C)c1nnc2n1CCN(C(=O)c1nn(C)c3ccccc13)C2`, the RP-LC retention time was 647 s.

Regarding `COc1ccc(-c2nnc(-c3cc(S(=O)(=O)NC(C)(C)CO)ccc3Cl)o2)cc1`, the RP-LC retention time amounted to 837 s.

For `O=S(=O)(Nc1cccn2ncnc12)c1ccc(Cl)cc1`, the RP-LC retention time was found to be 770 s.

`CCc1ccccc1N1C(=O)CN(S(C)(=O)=O)CC1(C)C(=O)NCc1ccc(C)cc1` (stereo not given): the RP-LC retention time worked out at 860 s.

`CS(=O)(=O)Nc1ccc2c(c1)C(=O)Nc1cc(Cl)ccc1O2` came in with an RP-LC retention time of 738 s.

`CN(CCNC(=O)C1CCCN(c2nnc(-n3cccc3)s2)C1)C1CCCCC1` (stereo not given): the RP-LC retention time came out at 650 s.

For `CC(C)Oc1ccc(-c2noc(Cn3ccn(-c4ccc(Cl)cc4)c(=O)c3=O)n2)cc1`, the RP-LC retention time amounted to 973 s.

The compound `CCc1cc(-c2csc(S(=O)(=O)N3CCc4ccccc4C3)c2)on1` registered an RP-LC retention time of 1110 s.

`Cc1oc(-c2[nH]ncc2C(=O)N(C)C)cc1S(=O)(=O)NCC(C)C` returned an RP-LC retention time of 671 s.

In turn, `Cc1ccc(CNC(=O)C2CCN(c3cncnc3N3CCOCC3)CC2)o1` yielded an RP-LC retention time of 605 s.

`Cc1cc(C(=O)N2CCCCC2)c2c(=O)n(CC(=O)Nc3ccc(F)cc3F)c(=O)n(C)c2n1` came in with an RP-LC retention time of 816 s.

In turn, `CCCc1ccc(S(=O)(=O)N2C[C@@H]3C(=O)N(C(CC)c4cccs4)C(=O)[C@@H]3C2)cc1` (stereo not given in full) showed an RP-LC retention time of 1160 s.
